Structures can show the parent of a compound that is named as a salt.

For 13 compounds, Ki and melting point results are on record in patent US6376488B1, “Benzoxazine α-1 adrenergic compounds” (Abbott Laboratories, priority 2000, dated 2002).

Data set [1] concerns the target T1, α1a (rat) adrenoreceptor (Rattus norvegicus, UniProt P43140).
T1 sequence (P43140 1-466): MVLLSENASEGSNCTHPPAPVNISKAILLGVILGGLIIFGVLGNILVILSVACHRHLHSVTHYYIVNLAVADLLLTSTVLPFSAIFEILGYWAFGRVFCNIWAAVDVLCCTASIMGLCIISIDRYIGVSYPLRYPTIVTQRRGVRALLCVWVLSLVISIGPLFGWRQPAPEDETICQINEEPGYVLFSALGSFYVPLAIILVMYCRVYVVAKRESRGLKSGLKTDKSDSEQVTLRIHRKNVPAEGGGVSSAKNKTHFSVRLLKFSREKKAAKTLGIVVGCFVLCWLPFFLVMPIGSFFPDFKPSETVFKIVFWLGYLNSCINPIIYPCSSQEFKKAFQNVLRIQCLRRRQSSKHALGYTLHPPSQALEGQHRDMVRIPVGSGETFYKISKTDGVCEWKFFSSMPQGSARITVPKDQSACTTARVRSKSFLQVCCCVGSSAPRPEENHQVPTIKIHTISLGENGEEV
Kind of data set: [3H]-prazosin radioligand binding, cloned α1a (rat) adrenoreceptor in LTK cells. Conditions: cloned receptor in LTK cell membranes, [3H]prazosin 0.2 nM. The text has this: (§1) The cDNA clones encoding the α1, adrenoreceptors were obtained from TULCO (Triangle Universities Licensing Consortium, Research Triangle Park, N.C.) and inserted into the eukaryotic expression vector SnaB30. In this vector, expression of the adrenoreceptor gene is under the transcriptional control of an SV40 early promoter. Positive drug selection is provided by a neomycin-resistance gene. Mouse fibroblast cells (LTK) were transfected with the α1 expression plasmids and grown in Dulbecco's modified Eagle's medium (DMEM) containing 10% fetal calf serum and 30 μM G418. […] Stable single cell clones derived from the parental lines were screened in adrenoreceptor binding assays to identify clones having high adrenoreceptor density. Roller bottle cultures of the cloned lines were used to provide cell membranes for subsequent adrenoreceptor binding characterization studies. A cell line containing the SnaB30 vector expressing the human erythropoietin gene served as a negative control.
(§2) For adrenoreceptor binding assays, large scale membrane preparations were utilized in which 6 million cells were seeded into small (450 cm^2) Coming tissue culture roller bottles. DMEM (200 mL) containing 10% fetal calf serum and 300 μM G418 were added to each roller bottle. A 95% air/5% CO2 gas mixture (sterile) was injected into each roller bottle prior to sealing, and the bottles were then incubated at 37° C. on a roller rack for 5 days. Cells were refed with fresh medium after 3 days in culture.
(§3) On the fifth day of culture, growth medium was removed from cells grown in roller bottles, and the cells were washed twice with PBS (Sigma, 120 mM NaCl, 2.7 mM KCl, 10 mM Na2HPO4-NaH2PO4, pH=7.4). Cells were detached from the roller bottles by incubating for 15 minutes at 37° C. in a Tris-EDTA solution (10 mM Tris, 100 mM NaCl, 1 mM EDTA, pH=7.4). The cell suspension from each roller bottle was decanted into tared centrifuge tubes and kept on ice. An aliquot of each cell suspension was generally taken for cell counting. Cells were centrifuged at 3000×G for 5 minutes at 2-4° C., washed with PBS and recentrifuged. The supernatant was decanted, and the pellet was weighed to determine the wet weight of cells. Cells were washed a final time in 40 vol 5 mM Tris-HCl, 5 mM EDTA, pH=7.7 and centrifuged at 40,000×G for 10 minutes (“vol” indicates volume/weight, e.g., a “vol” of 40 would indicate that the one gram of cells were washed with 40 mls of buffer). Cells were homogenized in of 50 mM Tris-HCl, 5 mM EDTA (pH=7.4) (10 mL) and diluted to 40 mL/tube. Homogenates were centrifuged at 40,000×G for 10 minutes. The supernatant was decanted and the pellets rehomogenized in 50 mM Tris-HCl (pH=7.4) and centrifuged as before.
(§4) Following equilibration, bound radioligand was separated from free on GF/B filters (presoaked in 0.5% polyethyleneimine) using ither a Brandel or Packard cell harvester. Radioactivity was determined by standard liquid scintillation techniques.

Data set [2] concerns the target T2, α1b (Hamster) adrenoreceptor (Mesocricetus auratus, UniProt P18841).
T2 sequence (P18841 1-515): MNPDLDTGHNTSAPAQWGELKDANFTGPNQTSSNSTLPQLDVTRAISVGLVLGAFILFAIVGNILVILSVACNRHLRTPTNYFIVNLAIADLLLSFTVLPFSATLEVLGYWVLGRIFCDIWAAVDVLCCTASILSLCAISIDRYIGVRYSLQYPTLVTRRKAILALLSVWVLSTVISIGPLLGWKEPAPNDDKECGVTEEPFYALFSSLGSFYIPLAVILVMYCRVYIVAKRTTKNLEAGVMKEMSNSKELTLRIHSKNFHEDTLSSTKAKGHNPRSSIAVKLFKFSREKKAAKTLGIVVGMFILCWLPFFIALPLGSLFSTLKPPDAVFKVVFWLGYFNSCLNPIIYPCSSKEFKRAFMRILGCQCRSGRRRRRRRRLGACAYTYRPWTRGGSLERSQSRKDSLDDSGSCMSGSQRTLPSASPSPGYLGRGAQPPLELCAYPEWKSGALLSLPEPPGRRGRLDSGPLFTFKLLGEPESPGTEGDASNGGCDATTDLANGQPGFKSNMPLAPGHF
Kind of data set: [3H]-prazosin radioligand binding, cloned α1b (hamster) adrenoreceptor in LTK cells. Conditions: cloned receptor in LTK cell membranes, [3H]prazosin 0.2 nM.
Text: as §1, §2, §3, §4

Compound `COc1cccc2c1N1CCN(CCn3c(=O)[nH]c4c(sc5cccnc54)c3=O)CC1CO2.Cl.Cl.Cl` (single isomer, unassigned; (+)) [Example 16, (+) 3-[2-(10-methoxy-1,2,4a,5-tetrahydropyrazino[2,1-c][1,4]benzoxazin-3(4H)-yl)ethyl]pyrido[2′,3′:4,5]thieno[3,2-d]pyrimidine-2,4(1H,3H)-dione trihydrochloride] gave a melting point of 301 to 302 °C. In addition, the affinity in data set [1], expressed as Ki, was 1.24 nM. For the same compound, the affinity in data set [2] corresponds to a Ki of 11.8 nM.
Compound `COc1cccc2c1N1CCN(CCCn3c(=O)[nH]c4c(sc5cccnc54)c3=O)CC1CO2.Cl.Cl.Cl` (single isomer, unassigned; (-)) [Example 9, (−) 3-[3-(10-methoxy-1,2,4a,5-tetrahydropyrazino[2,1-c][1,4]benzoxazin-3(4H)-yl)propyl]pyrido[2′,3′:4,5]thieno[3,2-d]pyrimidine-2,4(1H, 3H)-dione trihydrochloride] gave a melting point of 215 to 220 °C. In addition, in data set [1], the affinity, expressed as Ki, was 0.359 nM. In data set [2], the affinity corresponds to a Ki of 3.86 nM.
In turn, `COc1cccc2c1N1CCN(CCn3c(=O)[nH]c4c(sc5cccnc54)c3=O)CC1CO2.Cl.Cl` (single isomer, unassigned; (-)) [Example 7, (−) 3-[2-(10methoxy-1,2,4a,5-tetrahydropyrazino[2,1-c][1,4]benzoxazin-3(4H)-yl)ethyl]pyrido[2′,3′:4,5]thieno[3,2-d]pyrimidine-2,4(1H,3H)-dione dihydrochloride] showed a melting point of 297 to 298 °C. Further, the inhibition constant Ki in data set [1] was determined as 0.864 nM. The compound further had a Ki in data set [2] of 6.89 nM.
As for `COc1cccc2c1N1CCN(CCCCn3c(=O)[nH]c4c(sc5cccnc54)c3=O)CC1CO2` (single isomer, unassigned; (+)) [Example 14, (+) 3-[4-(10-methoxy-1,2,4a,5-tetrahydropyrazino[2,1-c][1,4]benzoxazin-3(4H)-yl)butyl]pyido [2′,3′:4,5]thieno[3,2-d]pyrimidine-2,4(1H,3H)-dione trihydrochloride], the inhibition constant Ki in data set [1] was determined as 0.29 nM; in data set [2], 8.32 nM.
For the compound `O=c1[nH]c2c(sc3cccnc32)c(=O)n1CCCN1CCN2c3ccccc3OCC2C1` (single isomer, unassigned; (-)) [Example 2, (−) 3-[3-(1,2,4a,5-tetrahydropyrazino[2,1-c][1,4]benzoxazin-3(4H)-yl)propyl]pyrido[2′,3′:4,5]thieno[3,2-d]pyrimidine-2,4(1H,3H)-dione dihydrochloride], the figures for the inhibition constant (Ki) in data set [1] and in data set [2] were 19.3 nM and 24.6 nM, respectively.
The compound `COc1cccc2c1N1CCN(CCCCn3c(=O)[nH]c4c(sc5ncccc54)c3=O)CC1CO2.Cl.Cl.Cl` (single isomer, unassigned; (+)) [Example 15, (+) 3-[4-(10-methoxy-1,2,4a,5-tetrahydropyrazino[2,1-c][1,4]benzoxazin-3(4H)-yl)butyl]pyrido[3′,2′:4,5]thieno[3,2-d]pyrimidine-2,4(1H,3H)-dione trihydrochloride] came in with a melting point of 225 to 230 °C. For the same compound, affinity in data set [1] was put at a Ki of 0.447 nM. In data set [2], the inhibition constant (Ki) amounted to 13.8 nM.
`Cl.Cl.O=c1[nH]c2c(sc3cccnc32)c(=O)n1CCCN1CCN2c3ccccc3OCC2C1` (single isomer, unassigned; (+)) [Example 1, (+) 3-[3-(1,2,4a,5-tetrahydropyrazino[2,1-c][1,4]benzoxazin-3(4H)-yl)propyl]pyrido[2′,3′:4,5]thieno[3,2-d]pyrimidine-2,4(1H,3H)-dione dihydrochloride]: the melting point was in the range of 278 to 282 °C. The Ki in data set [1] was 1.84 nM. Further, in data set [2], the affinity, expressed as Ki, was 14.3 nM.
In the case of `O=c1[nH]c2c(sc3cccnc32)c(=O)n1CCCCN1CCN2c3ccccc3OCC2C1` (single isomer, unassigned; (-)) [Example 4, (−) 3-[4-(1.2,4a,5-tetrahydropyrazino[2,1-c][1,4benzoxazin-3(4H)-yl)butyl]pyrido[2′,3′:4,5]thieno[3,2-d]pyrimidine-2,4(1H,3H)-dione dihydrochloride], the Ki in data set [1] was found to be 6.62 nM; in data set [2] it was 26.5 nM.
Regarding `COc1cccc2c1N1CCN(CCCCn3c(=O)[nH]c4c(sc5ncc(Cl)nc54)c3=O)CC1CO2.Cl.Cl` (single isomer, unassigned; (-)) [Example 12, (−) 3-[4-(10-methoxy-1,2,4a,5-tetrahydropyrazino[2,1-c][1,4]benzoxazin-3(4H)-yl)butyl]-8-chloropyrazino[2′,3′:4,5]thieno[3,2-d]pyrimidine-2,4(1H,3H)-dione dihydrochloride], the melting point is 198 to 201 °C. The Ki in data set [1] was determined as 0.648 nM. This compound also had a Ki in data set [2] of 8.91 nM.
As for “(−) 3-[3-(10-methoxy-1,2,4a,5-tetrahydropyrazino[2,1-c][1,4]benzoxazin-3(4H)-yl)butyl]pyrido[2′,3′:4,5]thieno[3,2-d]pyrimidine-2,4(1H,3H)-dione trihydrochloride [Example 10]”, the Ki in data set [1] is 0.257 nM; in data set [2] it was 1.81 nM.
`Cl.Cl.O=c1[nH]c2c(sc3ncccc32)c(=O)n1CCCCN1CCN2c3ccccc3OCC2C1` (single isomer, unassigned; (+)) [Example 5, (+) 3-[4-(1,2,4a,5-tetrahydropyrazino[2,1-c][1,4]benzoxazin-3(4H)-yl)butyl]pyrido[3′, 2′:4,5]thieno[3,2-d]pyrimidine-2,4(1H,3H)-dione dihydrochloride] returned a melting point of 288 to 291 °C. The same compound showed an inhibition constant Ki in data set [1] of 5.02 nM. The compound also displayed a Ki in data set [2] of 40.6 nM.
On the same counts, the results for `COc1cccc2c1N1CCN(CCn3c(=O)[nH]c4c(sc5ncc(Cl)nc54)c3=O)CC1CO2.Cl.Cl` (single isomer, unassigned; (-)) [Example 13, (−) 3-[2-(10-methoxy-1,2,4a,5-tetrahydropyrazino[2,1-c][1,4]benzoxazin-3(4H)-yl)ethyl]-8-chloropyrazino[2′,3′:4,5]thieno[3,2-d]pyrimidine-2,4(1H,3H)-dione dihydrochloride] are 280 to 282 °C, 1.55 nM and 39.1 nM.
Consider `COc1cccc2c1N1CCN(CCCCn3c(=O)[nH]c4c(sc5ncccc54)c3=O)CC1CO2` (single isomer, unassigned; (-)) [Example 11, (−) 3-[4-(10-methoxy-1,2,4a,5-tetrahydropyrazino[2,1-c][1,4]benzoxazin-3(4H)-yl)butyl]pyrido[3′,2′:4.5]thieno[3,2-d]pyrimidine-2,4(1H,3H)-dione trihydrochloride], for which the inhibition constant Ki in data set [1] is 0.24 nM; in data set [2] it was 2.71 nM.
